The record followed here is PubChem BioAssay (NCI).

Test systems include COLO 205 colon; PC-3 prostate; OVCAR-3 ovarian; MOLT-4 leukemia; M14 melanoma; HOP-92 NSCLC; ACHN renal; SF-268 CNS; 786-0 renal; SK-OV-3 ovarian; U251 CNS.
Test in all cases: growth of human tumour cells (NCI), 48 h

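Values below derive from 48-hour exposures of cells grown in 96-well plates, with endpoints linearly interpolated between the two concentrations bracketing the appropriate inhibition level. GI50: concentration for 50% inhibition of growth. TGI: concentration producing complete growth inhibition.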

`O=C(O)C(O)C(O)C(O)C(=O)CO` (stereo not given): the TGI in the assay on COLO 205 colon, in the assay with PC-3 prostate, with OVCAR-3 ovarian, in the assay with MOLT-4 leukemia, in the assay on M14 melanoma and in the assay on HOP-92 NSCLC was greater than 100 µM each time. In addition, the TGI in the assay with ACHN renal, with SF-268 CNS, in the assay with 786-0 renal, in the assay on SK-OV-3 ovarian and in the assay with U251 CNS was greater than 100 µM each time.
`Nc1ccc(-c2nc3cc(F)ccc3s2)cc1CO`: the TGI with COLO 205 colon is greater than 100 µM; in the assay with PC-3 prostate it was greater than 76.1 µM; with OVCAR-3 ovarian, greater than 100 µM; in the assay with MOLT-4 leukemia, greater than 100 µM; with M14 melanoma it was greater than 100 µM; with HOP-92 NSCLC it was 43.5 µM. Further, the TGI is greater than 100 µM with ACHN renal; 68.8 µM in the assay with SF-268 CNS; greater than 100 µM with 786-0 renal; 49.3 µM in the assay with SK-OV-3 ovarian; 41.5 µM in the assay on U251 CNS.
On to `Nc1cc(-c2ccc(Cl)cc2)nn1-c1nc2ccccc2nc1-c1ccccc1`, for which the TGI with COLO 205 colon, in the assay with PC-3 prostate, in the assay on OVCAR-3 ovarian, with MOLT-4 leukemia, in the assay with M14 melanoma and with HOP-92 NSCLC was greater than 100 µM in each case. For the same molecule, the TGI in the assay on ACHN renal, in the assay on SF-268 CNS, in the assay with 786-0 renal, in the assay with SK-OV-3 ovarian and with U251 CNS was greater than 100 µM in each case.
Regarding `COc1ccc(C(=O)N(C(=O)N2CCN(c3ccccc3)CC2)S(=O)(=O)c2ccccc2)cc1`, the TGI with COLO 205 colon was 31.8 µM; in the assay on PC-3 prostate, greater than 100 µM; in the assay with OVCAR-3 ovarian, greater than 100 µM; in the assay with MOLT-4 leukemia, 46.5 µM; in the assay with M14 melanoma, 42.6 µM; with HOP-92 NSCLC it was 72.3 µM. Also, the TGI in the assay on ACHN renal was 35.2 µM; with SF-268 CNS, greater than 100 µM; in the assay with 786-0 renal, 90.5 µM; with SK-OV-3 ovarian it was greater than 100 µM; in the assay with U251 CNS, 35.3 µM.
For `COc1cc([C@@H]2c3cc4c(cc3[C@@H](c3c(O)cc(O)c5c3O[C@H](c3ccc(O)c(O)c3)[C@H](OC(=O)c3cc(O)c(O)c(O)c3)C5)[C@H]3COC(=O)[C@H]23)OCO4)cc(OC)c1OC`, the TGI in the assay on COLO 205 colon is 90 µM; with PC-3 prostate, greater than 77.8 µM; in the assay with OVCAR-3 ovarian, greater than 21.9 µM; in the assay on MOLT-4 leukemia, greater than 100 µM; in the assay with M14 melanoma it was greater than 100 µM; with HOP-92 NSCLC it was greater than 100 µM. Also, the TGI in the assay with ACHN renal is greater than 50 µM; in the assay with SF-268 CNS it was greater than 100 µM; in the assay on 786-0 renal, greater than 100 µM; with SK-OV-3 ovarian, greater than 100 µM; in the assay with U251 CNS it was greater than 100 µM.
Consider `CC(=O)c1ccc2c(c1)N(CCCN1CCN(CCO)CC1)c1ccccc1C2`, for which the TGI in the assay on COLO 205 colon was found to be 31.8 µM; in the assay with PC-3 prostate, 27.8 µM; in the assay with OVCAR-3 ovarian it was 29.5 µM; in the assay on MOLT-4 leukemia, 35.2 µM; in the assay with M14 melanoma, 28.3 µM; in the assay with HOP-92 NSCLC, 27.4 µM. The TGI with ACHN renal was determined as 34.8 µM; with SF-268 CNS, 33.2 µM; in the assay on 786-0 renal, 31.5 µM; in the assay on SK-OV-3 ovarian it was 30.5 µM; in the assay on U251 CNS, 29.8 µM.
In the case of `NC(=S)N1N=C(c2ccccc2O)CC1c1ccccc1` (stereo not given), the TGI in the assay on COLO 205 colon worked out at 26.5 µM; in the assay with PC-3 prostate, 22.8 µM; with OVCAR-3 ovarian, 31.2 µM; in the assay on MOLT-4 leukemia, 78.7 µM; in the assay on M14 melanoma, 24.5 µM; in the assay with HOP-92 NSCLC, 54.6 µM. Besides, the TGI with ACHN renal was found to be 61.8 µM; in the assay with SF-268 CNS it was 80.6 µM; with 786-0 renal it was 60 µM; in the assay with SK-OV-3 ovarian, 49.8 µM; with U251 CNS, 43.8 µM.
For `O=C1/C(=C\c2ccc(F)cc2)CCOc2c1ccc1ccccc21`, the TGI in the assay with COLO 205 colon was greater than 100 µM; in the assay with PC-3 prostate it was greater than 100 µM; with OVCAR-3 ovarian, 27.9 µM; with MOLT-4 leukemia, greater than 47.8 µM; in the assay on M14 melanoma it was 82.7 µM; in the assay on HOP-92 NSCLC it was 71.5 µM. The TGI was greater than 100 µM with ACHN renal; 74.9 µM in the assay with SF-268 CNS; 62.5 µM in the assay on 786-0 renal; greater than 100 µM in the assay on SK-OV-3 ovarian; greater than 100 µM in the assay with U251 CNS. The GI50 in the assay on ACHN renal was 47.9 µM.
`COc1cc2c(cc1C)NC(=O)/C2=C/c1c(Cl)n(-c2ccccc2)c2ccccc12`: the TGI was 18.5 µM in the assay with COLO 205 colon; greater than 100 µM with PC-3 prostate; 28 µM in the assay on OVCAR-3 ovarian; 33.8 µM with MOLT-4 leukemia; 63.1 µM with M14 melanoma; greater than 100 µM in the assay with HOP-92 NSCLC. For the same molecule, the TGI is greater than 100 µM with ACHN renal; greater than 100 µM in the assay on SF-268 CNS; 43.3 µM in the assay on 786-0 renal; 69.7 µM with SK-OV-3 ovarian; 64.3 µM in the assay with U251 CNS.
